{"source": "paper PMC9782211", "about": "(Microorganisms, 2022)", "origin": "cited, not measured here", "test_system": "hERG channels", "settings": "cited from earlier work", "from_the_text": "Inhibition of the potassium current flowing through the cardiac hERG ion channel (Kv11.1) has been correlated to life threatening torsades de pointes cardiac arrhythmia. Effects on hERG channel currents have been observed for a number of drugs, including antihistamines, antipsychotics, and many other drugs from nearly all therapeutic areas and chemical classes, and have become a serious safety concern in drug discovery and development. Inhibition of hERG channel currents have also been reported for antibiotics, in particular for macrolides, raising concerns about the cardiac safety of a ..."}
{"substance": "BeKm-1", "values": [{"measurement": "block of hERG channels", "result": "high affinity"}]}
